From patent publication US20080146669A1, “Novel Chloride Channel Pore Openers” (THE UAB RESEARCH FOUNDATION, priority 2005, published 2008)

Assays:
CFTR-minus cells = assay: Currents across patches excised from CFTR-minus (untransfected) cells; assay type: biochemical
Procedure: (§1) Cell culture DNA constructs and transfections. Baby hamster kidney (BHK) cells stably expressing wild type human CFTR (BHK-CFTR) were provided by J. Hanrahan (McGill University). BHK-CFTR cells were cultured in Dulbecco's modified Eagle's medium (DMEM (Mediatech)) supplemented with 5% fetal bovine serum (FBS) and 1 mM penicillin-streptomycin. The growth media for the BHK-CFTR cells also contained 0.5 mM methotrexate to maintain selection for CFTR-expressing cells (22). HEK-293T cells were transiently transfected with wild-type or mutant CFTR cDNA using the Lipofectamine transfection kit following manufacturer's recommendations (Invitrogen, Corp). HEK-293T cells were cultured in DMEM. All cells were grown on plastic coverslips for patch clamp recording and were used 2-3 days post-seeding. Electrophysiology and data analysis. Macroscopic and multi-channel currents were recorded in the excised, inside-out configuration. Patch pipettes were pulled from Corning 8161 glass to tip resistances of […] (macroscopic recordings) or 8-10 mOhm (micropatch studies). CFTR channels were activated following patch excision by exposure of the cytoplasmic face of the patch to catalytic subunit of protein kinase A (PKA; 110 U/ml; Promega) and Mg-ATP (1.5 mM). CFTR currents were recorded in symmetrical solution containing (in mM): 140 N-methyl-D-glucaniine-Cl, 3 MgCl2, 1 EGTA and 10 TES. The pH was adjusted to 7.3. Macroscopic currents were evoked using a ramp protocol from +80 to −80 mV with a 10 sec time period. Patches were held at −80 mV or +80 mV for micropatch (multichannel) recordings. All patch clamp experiments were performed at 21-23° C. Signals from macroscopic and single channel recording were filtered at 20 and 200 Hz, respectively. Data acquisition and analysis were performed using pCLAMP8 and pCLAMP9 software (Axon Instruments). Curve fitting for kinetic analysis was performed using Microcal Origin software. Averaged data are presented as mean +/−SEM. Statistical comparisons were made by performing unpaired t-tests unless otherwise indicated. Ussing Chamber Experiments-CFBE41o epithelial cells stably transfected with ΔF508-CFTR or transiently transfected with wild-type CFTR were cultured as electrically resistive monolayers and assayed in Ussing chambers as described (16). ΔF508-CFTR-expressing monolayers were grown at 27° C. for 2-3 days to enhance the surface expression of this temperature-sensitive mutant. A serosal-to-mucosal Cl^− gradient (120 to 1.2 mM) was imposed, followed by amiloride addition (100 μM) to block Na^+ currents. Compounds were added to both chambers at the indicated concentrations. A 3-mV voltage pulse was imposed every 100 s to monitor transepithelial resistance.

G551D-CFTR = biological target: T1, G551D-CFTR (Homo sapiens, UniProt P13569, G551D); assay: Macroscopic currents in excised patches from HEK-293T cells expressing G551D-CFTR; assay type: biochemical; conditions: 10 μM
T1 construct: expressed in transfected cells; host or cells: HEK-293T, transient
Procedure: as §1, with “Ussing Chamber Experiments-CFBE41o epithelial cells stably transfected with ΔF508-CFTR or transiently transfected with wild-type CFTR were cultured as electrically resistive monolayers and assayed in Ussing chambers as described (16). ΔF508-CFTR-expressing monolayers were grown at 27° C. for 2-3 days to enhance the surface expression of this temperature-sensitive mutant. A serosal-to-mucosal Cl^− gradient (120 to 1.2 mM) was imposed, followed by amiloride addition (100 μM) to block Na^+ currents. Compounds were added to both chambers at the indicated concentrations. A 3-mV voltage pulse was imposed every 100 s to monitor transepithelial resistance.” left out

ΔF508-CFTR [1] = biological target: T2, ΔF508-CFTR (Homo sapiens, UniProt P13569, DEL508-508); assay: Micropatch recording of HEK-293T patches expressing ΔF508-CFTR, opening rate and Po; assay type: biochemical
T2 construct: expressed in transfected cells; host or cells: HEK-293T, transient; grown at 28° C. for 24 hrs
Procedure: as §1

ΔF508-CFTR [2] = biological target: T2, ΔF508-CFTR; assay: Ussing chamber transepithelial chloride currents, temperature-corrected ΔF508-CFTR CFBE41o- monolayers; assay type: cell-based
Procedure: as §1

[3] = system: parental CFBE41o- monolayers; assay: Ussing chamber transepithelial currents, parental CFBE41o- monolayers; assay type: cell-based, human; conditions: n=6, data not shown
Procedure: Cell culture DNA constructs and transfections. Baby hamster kidney (BHK) cells stably expressing wild type human CFTR (BHK-CFTR) were provided by J. Hanrahan (McGill University). BHK-CFTR cells were cultured in Dulbecco's modified Eagle's medium (DMEM (Mediatech)) supplemented with 5% fetal bovine serum (FBS) and 1 mM penicillin-streptomycin. The growth media for the BHK-CFTR cells also contained 0.5 mM methotrexate to maintain selection for CFTR-expressing cells (22). HEK-293T cells were transiently transfected with wild-type or mutant CFTR cDNA using the Lipofectamine transfection kit following manufacturer's recommendations (Invitrogen, Corp). HEK-293T cells were cultured in DMEM. All cells were grown on plastic coverslips for patch clamp recording and were used 2-3 days post-seeding. Electrophysiology and data analysis. Macroscopic and multi-channel currents were recorded in the excised, inside-out configuration. Patch pipettes were pulled from Corning 8161 glass to tip resistances of […] (macroscopic recordings) or 8-10 mOhm (micropatch studies). CFTR channels were activated following patch excision by exposure of the cytoplasmic face of the patch to catalytic subunit of protein kinase A (PKA; 110 U/ml; Promega) and Mg-ATP (1.5 mM). CFTR currents were recorded in symmetrical solution containing (in mM): 140 N-methyl-D-glucaniine-Cl, 3 MgCl2, 1 EGTA and 10 TES. […]

wild-type CFTR = wild-type CFTR (Homo sapiens, UniProt P13569); assay: Micropatch (multichannel) recording of BHK-CFTR patches, opening rate and Po; assay type: biochemical; parameters: expressed in transfected cells; provided by J. Hanrahan (McGill University)
Procedure: as §1, with “CFTR channels were activated following patch excision by exposure of the cytoplasmic face of the patch to catalytic subunit of protein kinase A (PKA; 110 U/ml; Promega) and Mg-ATP (1.5 mM).” left out, “Ussing Chamber Experiments-CFBE41o epithelial cells stably transfected with ΔF508-CFTR or transiently transfected with wild-type CFTR were cultured as electrically resistive monolayers and assayed in Ussing chambers as described (16). ΔF508-CFTR-expressing monolayers were grown at 27° C. for 2-3 days to enhance the surface expression of this temperature-sensitive mutant. A serosal-to-mucosal Cl^− gradient (120 to 1.2 mM) was imposed, followed by amiloride addition (100 μM) to block Na^+ currents. Compounds were added to both chambers at the indicated concentrations. A 3-mV voltage pulse was imposed every 100 s to monitor transepithelial resistance.” left out

[4] = 10 μM, high PKA, 1.5 mM MgATP, −80 mV, best guess estimate, mean±S.E., n=4
[5] = 10 μM, poorly phosphorylated, −80 mV, best guess estimate, mean±S.E., n=7

T2 sequence (P13569 with tags, fused parts or gaps DEL508-508): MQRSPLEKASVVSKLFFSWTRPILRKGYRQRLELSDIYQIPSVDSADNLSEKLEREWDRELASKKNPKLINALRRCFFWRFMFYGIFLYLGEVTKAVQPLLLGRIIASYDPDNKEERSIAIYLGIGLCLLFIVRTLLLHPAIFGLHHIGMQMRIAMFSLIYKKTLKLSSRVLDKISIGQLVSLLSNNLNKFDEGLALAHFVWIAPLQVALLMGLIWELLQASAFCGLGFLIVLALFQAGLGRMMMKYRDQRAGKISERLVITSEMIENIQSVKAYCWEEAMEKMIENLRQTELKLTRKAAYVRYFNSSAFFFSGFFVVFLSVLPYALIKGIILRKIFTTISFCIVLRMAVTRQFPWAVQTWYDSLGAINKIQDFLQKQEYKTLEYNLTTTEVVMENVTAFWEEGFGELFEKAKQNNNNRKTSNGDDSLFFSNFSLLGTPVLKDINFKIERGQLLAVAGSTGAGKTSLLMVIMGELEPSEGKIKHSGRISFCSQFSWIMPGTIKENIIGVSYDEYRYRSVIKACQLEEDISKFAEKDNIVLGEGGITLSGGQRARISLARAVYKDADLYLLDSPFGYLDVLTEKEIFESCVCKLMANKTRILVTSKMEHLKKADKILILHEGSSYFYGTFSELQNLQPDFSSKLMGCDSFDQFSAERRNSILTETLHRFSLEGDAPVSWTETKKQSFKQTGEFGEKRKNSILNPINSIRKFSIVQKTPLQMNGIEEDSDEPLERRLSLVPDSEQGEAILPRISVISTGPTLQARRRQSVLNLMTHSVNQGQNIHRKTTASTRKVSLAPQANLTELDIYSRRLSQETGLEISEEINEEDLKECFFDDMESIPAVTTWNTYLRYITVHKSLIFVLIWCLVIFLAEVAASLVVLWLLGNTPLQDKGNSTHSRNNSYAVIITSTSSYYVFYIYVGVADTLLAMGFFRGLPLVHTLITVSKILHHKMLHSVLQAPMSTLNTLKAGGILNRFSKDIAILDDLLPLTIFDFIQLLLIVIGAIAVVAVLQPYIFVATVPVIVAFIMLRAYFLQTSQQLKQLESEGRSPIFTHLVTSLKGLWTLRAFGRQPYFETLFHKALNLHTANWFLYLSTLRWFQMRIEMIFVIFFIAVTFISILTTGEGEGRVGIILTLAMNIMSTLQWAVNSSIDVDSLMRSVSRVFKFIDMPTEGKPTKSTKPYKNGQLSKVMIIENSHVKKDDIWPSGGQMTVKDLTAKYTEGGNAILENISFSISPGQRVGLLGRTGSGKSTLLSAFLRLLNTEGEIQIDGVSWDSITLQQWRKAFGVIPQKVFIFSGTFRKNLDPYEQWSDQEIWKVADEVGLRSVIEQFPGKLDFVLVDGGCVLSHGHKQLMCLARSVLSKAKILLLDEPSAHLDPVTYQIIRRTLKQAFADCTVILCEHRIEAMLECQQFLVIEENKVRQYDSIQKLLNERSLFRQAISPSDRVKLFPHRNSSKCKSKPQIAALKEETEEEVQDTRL
Chain of wild-type CFTR (P13569 whole entry): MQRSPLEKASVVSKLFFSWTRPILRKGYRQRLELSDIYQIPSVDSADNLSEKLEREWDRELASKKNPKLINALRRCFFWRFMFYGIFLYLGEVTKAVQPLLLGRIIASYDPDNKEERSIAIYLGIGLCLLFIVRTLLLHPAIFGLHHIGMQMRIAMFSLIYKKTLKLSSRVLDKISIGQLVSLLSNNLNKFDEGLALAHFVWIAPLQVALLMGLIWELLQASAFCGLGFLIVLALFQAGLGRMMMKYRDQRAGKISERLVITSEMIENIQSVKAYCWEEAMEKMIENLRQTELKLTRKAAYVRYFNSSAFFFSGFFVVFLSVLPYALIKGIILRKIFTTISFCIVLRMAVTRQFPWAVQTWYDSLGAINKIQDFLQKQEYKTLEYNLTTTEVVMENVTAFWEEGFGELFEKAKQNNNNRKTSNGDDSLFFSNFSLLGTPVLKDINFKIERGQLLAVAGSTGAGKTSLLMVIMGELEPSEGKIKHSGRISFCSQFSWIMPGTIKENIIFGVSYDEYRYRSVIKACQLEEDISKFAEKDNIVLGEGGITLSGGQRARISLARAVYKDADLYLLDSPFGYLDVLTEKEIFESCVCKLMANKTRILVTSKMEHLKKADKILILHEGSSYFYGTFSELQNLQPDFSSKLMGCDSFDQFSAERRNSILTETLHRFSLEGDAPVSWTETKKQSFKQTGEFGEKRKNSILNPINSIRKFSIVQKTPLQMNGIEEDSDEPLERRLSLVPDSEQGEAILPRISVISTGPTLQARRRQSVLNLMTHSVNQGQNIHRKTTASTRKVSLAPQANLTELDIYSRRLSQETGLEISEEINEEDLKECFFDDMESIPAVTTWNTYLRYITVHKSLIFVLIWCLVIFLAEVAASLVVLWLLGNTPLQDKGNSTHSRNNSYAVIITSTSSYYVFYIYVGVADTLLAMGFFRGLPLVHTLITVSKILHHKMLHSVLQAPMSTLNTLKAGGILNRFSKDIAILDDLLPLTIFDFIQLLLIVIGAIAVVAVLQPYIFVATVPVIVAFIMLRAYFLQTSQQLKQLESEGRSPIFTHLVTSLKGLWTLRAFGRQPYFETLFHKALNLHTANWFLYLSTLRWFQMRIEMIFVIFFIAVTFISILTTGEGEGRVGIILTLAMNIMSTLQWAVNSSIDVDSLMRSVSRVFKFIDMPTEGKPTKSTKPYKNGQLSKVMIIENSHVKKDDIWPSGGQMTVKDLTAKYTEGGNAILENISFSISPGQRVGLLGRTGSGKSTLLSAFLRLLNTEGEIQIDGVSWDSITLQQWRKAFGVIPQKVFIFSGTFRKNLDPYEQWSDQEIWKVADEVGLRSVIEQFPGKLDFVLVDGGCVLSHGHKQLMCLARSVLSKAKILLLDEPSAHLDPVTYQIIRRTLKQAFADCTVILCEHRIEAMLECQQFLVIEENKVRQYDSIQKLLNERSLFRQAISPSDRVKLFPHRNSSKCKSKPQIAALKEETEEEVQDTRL
T1 sequence (P13569 whole entry G551D): as the sequence (P13569 whole entry) above, with G551D counted along it

effect on G551D-CFTR activity (G551D-CFTR): only modestly stimulated | mean single channel opening rate, post compound (ΔF508-CFTR [1]; [4]): 0.87±0.31 openings/s/channel | single channel Po, post compound (ΔF508-CFTR [1]; [4]): 0.25±0.07 | simultaneous openings after compound addition (ΔF508-CFTR [1]; 10 μM, representative micropatch, no more than 2 before addition): 12-15 | effect on ΔF508-CFTR channel opening rate (ΔF508-CFTR [1]; fewer than 10 detectable channels per patch): large increase in channel opening rate | effect on transepithelial currents without cAMP agonist (ΔF508-CFTR [2]; 120 nM to 12 μM): stimulated the transepithelial currents | stimulated transepithelial current with H89 (ΔF508-CFTR [2]; prior treatment with H89 100 μM, n=4, monolayer type (wild-type or ΔF508) not stated): 5.5+/−1.3 μA/cm^2 | stimulated transepithelial current without H89 (ΔF508-CFTR [2]; −H89, n=4, monolayer type (wild-type or ΔF508) not stated): 23.3+/−2.0 μA/cm^2 | mean single channel opening rate, post compound (wild-type CFTR; [5]): 1.07±0.29 openings/s/channel | single channel Po, post compound (wild-type CFTR; [5]): 0.26±0.06
SMILES: NC(=O)c1cc([N+](=O)[O-])ccc1NCCCc1ccccc1 [NPPB-Am]
effect on currents across membrane patches excised from CFTR-minus cells (CFTR-minus cells; data not shown): no effect | effect on currents across a patch from untransfected HEK-293T cells (CFTR-minus cells; untransfected HEK-293T): neither | potentiation of the forskolin effect on ΔF508-CFTR transepithelial currents (ΔF508-CFTR [2]; 1 μM compound with 1 μM forskolin, N=8-12): markedly potentiated the effect of forskolin | increase in transepithelial current [3]: 1.1+/−2.7 μA/cm^2 | effect on opening rates and mean single channel open probabilities (Pos) (wild-type CFTR; poorly phosphorylated (2 U/ml PKA), fewer than 10 channels per patch): markedly increased the opening rates and mean single channel open probabilities
